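Growth conditions: 96-well plates. Treatment: test compound, 48 hours, 5 concentrations. Analysis: linear interpolation between bracketing concentrations; unreached endpoints set to highest concentration. Here, GI50 denotes the concentration required for 50% inhibition of growth.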 Active and inactive are the calls of the source. No stated cut-off is given here; in the data, active = GI50 up to about 1.1 µM and inactive = higher.
What was measured:
Assay in all cases: DTP human tumour cell line panel, 48 h
IGROV-1 = tested on: IGROV-1
DU-145 = tested on: DU-145
HCT-15 = tested on: HCT-15
NCI-H522 = tested on: NCI-H522
OVCAR-3 = tested on: OVCAR-3
SNB-75 = tested on: SNB-75
NCI-H23 = tested on: NCI-H23
SF-295 = tested on: SF-295
NCI-H460 = tested on: NCI-H460
SW-620 = tested on: SW-620
M14 = tested on: M14
OVCAR-5 = tested on: OVCAR-5
UACC-257 = tested on: UACC-257
MDA-MB-231 = tested on: MDA-MB-231
SN12C = tested on: SN12C
BT-549 = tested on: BT-549
SR = tested on: SR
A549 = tested on: A549
SNB-19 = tested on: SNB-19
UACC-62 = tested on: UACC-62

SMILES | GI50 (IGROV-1) | GI50 (DU-145) | GI50 (HCT-15) [µM] | GI50 (NCI-H522) | GI50 (OVCAR-3) | GI50 (SNB-75) | GI50 (NCI-H23) | GI50 (SF-295) | GI50 (NCI-H460) | GI50 (SW-620) | GI50 (M14) | GI50 (OVCAR-5) | GI50 (UACC-257) | GI50 (MDA-MB-231) | GI50 (SN12C) | GI50 (BT-549) | GI50 (SR) | GI50 (A549) | GI50 (SNB-19) | GI50 (UACC-62)
CCOC(=O)C(C)NC(=O)C(C)NC(=O)C(C)NC(=O)C(C)NC(=O)C(C)NC(=O)OCc1ccccc1 (stereo not given) | > 100 µM (inactive) | > 100 µM (inactive) | > 100 | > 100 µM (inactive) | > 100 µM (inactive) | 78.3 µM (inactive) | > 100 µM (inactive) | > 100 µM (inactive) | > 100 µM (inactive) | > 100 µM (inactive) | > 100 µM (inactive) | > 100 µM (inactive) | > 100 µM (inactive) | > 100 µM (inactive) | > 100 µM (inactive) | > 100 µM (inactive) | > 100 µM (inactive) | > 100 µM (inactive) | > 100 µM (inactive) | > 100 µM (inactive)
CC(=O)OC(=C(C#N)C#N)c1nccnc1C(C)=O | > 20 µM (inactive) | > 20 µM (inactive) | > 20 | 19.2 µM (inactive) | 14.6 µM (inactive) | 3.96 µM (inactive) | > 20 µM (inactive) | 10.9 µM (inactive) | 7.83 µM (inactive) | > 20 µM (inactive) | 4.8 µM (inactive) | > 20 µM (inactive) | > 20 µM (inactive) | > 20 µM (inactive) | > 20 µM (inactive) | 13.3 µM (inactive) | 18.5 µM (inactive) | 11.9 µM (inactive) | > 20 µM (inactive) | > 20 µM (inactive)

Reference: ChEMBL document CHEMBL1201862, “PubChem BioAssay data set” (2004)
